# Columns and labels:
# Trypsin = target: T1, Trypsin (Bos taurus, UniProt P00760); assay: Anti-trypsin activity (inhibition of TAME hydrolysis); type: biochemical; details: read-out: ID50, Trypsin
# T1 sequence (P00760 24-246): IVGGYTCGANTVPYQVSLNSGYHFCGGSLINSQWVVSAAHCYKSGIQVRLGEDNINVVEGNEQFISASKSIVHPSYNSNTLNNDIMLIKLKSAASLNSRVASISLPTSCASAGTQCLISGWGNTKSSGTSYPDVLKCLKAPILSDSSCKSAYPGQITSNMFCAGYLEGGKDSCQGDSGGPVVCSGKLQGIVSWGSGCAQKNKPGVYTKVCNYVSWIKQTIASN
# Plasmin = Plasmin (Homo sapiens, UniProt P00747); assay: Anti-plasmin activity (inhibition of TAME hydrolysis); type: biochemical; details: TAME hydrolysis; read-out: ID50, Plasmin
# Plasmin, sequence (P00747 97-580 limits assumed, species assumed): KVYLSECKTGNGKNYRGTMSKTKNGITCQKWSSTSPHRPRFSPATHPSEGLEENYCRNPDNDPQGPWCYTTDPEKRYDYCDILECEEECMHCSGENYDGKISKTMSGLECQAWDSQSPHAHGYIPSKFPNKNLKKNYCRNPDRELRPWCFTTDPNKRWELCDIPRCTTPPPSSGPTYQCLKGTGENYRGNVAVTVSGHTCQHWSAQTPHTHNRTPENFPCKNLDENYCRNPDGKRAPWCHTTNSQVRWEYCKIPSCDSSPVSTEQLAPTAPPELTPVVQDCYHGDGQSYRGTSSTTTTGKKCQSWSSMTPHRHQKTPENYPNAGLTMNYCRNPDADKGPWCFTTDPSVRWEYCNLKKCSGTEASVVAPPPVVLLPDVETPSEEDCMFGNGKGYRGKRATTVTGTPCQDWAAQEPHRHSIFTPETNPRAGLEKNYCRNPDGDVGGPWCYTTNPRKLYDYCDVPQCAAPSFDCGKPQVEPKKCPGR
# Plasmin, sequence (P00747 581-810 limits assumed, species assumed): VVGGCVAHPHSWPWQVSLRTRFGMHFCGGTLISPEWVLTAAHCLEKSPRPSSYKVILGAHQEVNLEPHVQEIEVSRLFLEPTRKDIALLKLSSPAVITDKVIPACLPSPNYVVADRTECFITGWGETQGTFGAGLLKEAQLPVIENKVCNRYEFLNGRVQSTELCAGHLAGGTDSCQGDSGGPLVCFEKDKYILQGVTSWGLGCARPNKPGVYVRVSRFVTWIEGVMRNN
# Kallikrein = assay: Anti-kallikrein activity (inhibition of TAME hydrolysis); type: biochemical; details: read-out: ID50, Kallikrein
# Thrombin = Thrombin (Homo sapiens, UniProt P00734); assay: biochemical; details: for IC50: TAME hydrolysis, read-out: ID50, Thrombin
# C1r = target: T2, C1r (Homo sapiens, UniProt P00736); assay: Anti-C1r activity (inhibition of AAME hydrolysis); type: biochemical; details: for inhibition at 10 µM: at 1×10^-5 M, read-out: percent inhibition, C1r (figure in parentheses); for IC50: AAME hydrolysis, read-out: ID50, C1r
# T2 sequence (P00736 18-463 limits assumed): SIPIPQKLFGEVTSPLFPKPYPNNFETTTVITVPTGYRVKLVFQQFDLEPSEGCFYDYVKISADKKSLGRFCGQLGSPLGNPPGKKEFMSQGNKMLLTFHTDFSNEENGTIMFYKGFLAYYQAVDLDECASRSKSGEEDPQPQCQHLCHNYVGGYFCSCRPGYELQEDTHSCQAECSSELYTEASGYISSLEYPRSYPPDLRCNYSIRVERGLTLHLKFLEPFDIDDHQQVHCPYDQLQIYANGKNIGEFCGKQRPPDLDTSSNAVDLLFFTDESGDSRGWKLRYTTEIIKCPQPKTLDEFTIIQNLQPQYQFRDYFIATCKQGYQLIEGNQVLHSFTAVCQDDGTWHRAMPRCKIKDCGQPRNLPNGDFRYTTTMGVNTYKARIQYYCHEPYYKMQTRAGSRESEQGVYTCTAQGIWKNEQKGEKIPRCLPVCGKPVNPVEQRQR
# T2 sequence (P00736 464-705 limits assumed): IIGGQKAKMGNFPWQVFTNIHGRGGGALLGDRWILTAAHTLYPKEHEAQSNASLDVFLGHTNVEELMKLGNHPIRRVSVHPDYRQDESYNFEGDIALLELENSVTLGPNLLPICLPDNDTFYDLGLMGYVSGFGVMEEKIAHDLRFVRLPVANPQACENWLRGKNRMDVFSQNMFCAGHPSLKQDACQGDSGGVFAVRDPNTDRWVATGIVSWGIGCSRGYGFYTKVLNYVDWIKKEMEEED
# Method: The anti-C1 esterase (C1r, C1s) activity was determined according to the method of Okamura et al. [K. Okamura, M. Muramatsu and B. Fujii, Biochem. Biophys. Acta, 295, 252-257 (1973)]. (2) The inhibition of complement mediated hemolysis was determined according to the method of Baker et al. [B. R. Baker and E. H. Erickson, J. Med. Chem., 12, 408-414 (1969)]. The figures in Table 2 have the following meanings: C1r: […]
# C1s = target: T3, C1s (Homo sapiens, UniProt P09871); assay: Anti-C1s activity (inhibition of ATEE hydrolysis); type: biochemical; details: read-out: ID50, C1s
# T3 sequence (P09871 16-437 limits assumed): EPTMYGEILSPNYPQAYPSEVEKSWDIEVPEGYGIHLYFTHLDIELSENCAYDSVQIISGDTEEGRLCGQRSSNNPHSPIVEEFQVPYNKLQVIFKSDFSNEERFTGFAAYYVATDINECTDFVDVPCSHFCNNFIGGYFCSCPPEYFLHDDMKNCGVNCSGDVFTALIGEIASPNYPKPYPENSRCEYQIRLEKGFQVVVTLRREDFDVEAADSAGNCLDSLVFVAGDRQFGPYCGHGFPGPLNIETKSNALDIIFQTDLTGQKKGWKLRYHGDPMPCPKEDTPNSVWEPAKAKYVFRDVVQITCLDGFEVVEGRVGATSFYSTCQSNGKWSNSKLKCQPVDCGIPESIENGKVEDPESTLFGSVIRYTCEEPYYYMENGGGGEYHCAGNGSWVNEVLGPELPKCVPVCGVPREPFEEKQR
# T3 sequence (P09871 438-688 limits assumed): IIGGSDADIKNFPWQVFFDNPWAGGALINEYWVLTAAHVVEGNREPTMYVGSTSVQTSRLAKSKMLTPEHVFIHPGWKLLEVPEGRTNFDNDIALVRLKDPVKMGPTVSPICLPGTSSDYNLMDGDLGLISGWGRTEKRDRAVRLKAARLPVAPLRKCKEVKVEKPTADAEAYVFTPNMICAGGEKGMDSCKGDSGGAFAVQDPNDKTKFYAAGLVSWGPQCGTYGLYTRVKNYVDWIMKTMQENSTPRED
# Method: The anti-C1 esterase (C1r, C1s) activity was determined according to the method of Okamura et al. [K. Okamura, M. Muramatsu and B. Fujii, Biochem. Biophys. Acta, 295, 252-257 (1973)]. (2) The inhibition of complement mediated hemolysis was determined according to the method of Baker et al. [B. R. Baker and E. H. Erickson, J. Med. Chem., 12, 408-414 (1969)]. The figures in Table 2 have the following meanings:
# C1s: Molar concentration of the test compound which inhibits 50% of the ability of C1s to hydrolyse ATEE (acetyltyrosin ethyl ester) (ID50).
# [1] = test system: complement mediated hemolysis; assay: Inhibition of complement mediated hemolysis; type: cell-based
# Excerpt: Therefore, when a known amount of complement admixed with a C1 esterase inhibitor is used, the hemolysis must be suppressed in proportion to the inhibitory activity.
Compound,IC50 (Trypsin),IC50 (Plasmin),IC50 (Kallikrein),IC50 (Thrombin),inhibition at 10 µM (C1r),IC50 (C1s),Inhibition of complement mediated hemolysis (%) ([1]; 1 × 10^-5),Inhibition of complement mediated hemolysis (%) ([1]; 1 × 10^-6),Inhibition of complement mediated hemolysis (%) ([1]; 1 × 10^-7),IC50 (C1r),"inhibition at 10 µM (Thrombin; at 1×10^-5 M, read-out: percentage inhibition, Thrombin (figure in parentheses))"
CN1CCNC1=Nc1ccc(C(=O)Oc2ccc3cc(C(=N)N)ccc3c2)cc1 [compound 3],300 nM,1000 nM,600 nM,800 nM,38%,300 nM,93%,25%,0%,,
CC1CNC(Nc2ccc(C(=O)Oc3ccc4cc(C(=N)N)ccc4c3)cc2)=N1 (stereo not shown) [compound 4],3000 nM,1000 nM,400 nM,2000 nM,,400 nM,100%,96%,48%,10 µM,
N=C(N)c1ccc2cc(OC(=O)c3ccc(NC4=NCCCN4)cc3)ccc2c1 [compound 5],6000 nM,1000 nM,500 nM,2000 nM,41%,300 nM,98%,83%,5%,,
N=C(N)c1ccc2cc(OC(=O)c3ccc(NC4=NC5CCCCC5N4)cc3)ccc2c1 (stereo not shown) [compound 6],2000 nM,3000 nM,900 nM,2000 nM,,400 nM,100%,100%,75%,9 µM,
N=C(N)c1ccc2cc(OC(=O)c3ccc(Nc4ncc[nH]4)cc3)ccc2c1 [compound 7],600 nM,5000 nM,4000 nM,6000 nM,,300 nM,96%,46%,4%,3 µM,
CNC(=N)Nc1ccc(C(=O)Oc2ccc3cc(C(=N)N)ccc3c2)cc1 [compound 8],4000 nM,3000 nM,3000 nM,60 nM,47%,2000 nM,100%,93%,34%,,
CN(C)C(=N)Nc1ccc(C(=O)Oc2ccc3cc(C(=N)N)ccc3c2)cc1 [compound 9],6000 nM,2000 nM,900 nM,600 nM,41%,400 nM,100%,68%,8%,,
CCNC(=N)Nc1ccc(C(=O)Oc2ccc3cc(C(=N)N)ccc3c2)cc1 [compound 10],2000 nM,5000 nM,400 nM,6000 nM,48%,800 nM,100%,86%,20%,,
CCNC(=NC)Nc1ccc(C(=O)Oc2ccc3cc(C(=N)N)ccc3c2)cc1 [compound 11],,,,,24%,200 nM,100%,57%,0%,,
CCN=C(NCC)Nc1ccc(C(=O)Oc2ccc3cc(C(=N)N)ccc3c2)cc1 [compound 12],,,,,24%,80 nM,100%,59%,0%,,
CCCCNC(=N)Nc1ccc(C(=O)Oc2ccc3cc(C(=N)N)ccc3c2)cc1 [compound 13],2000 nM,500 nM,900 nM,1000 nM,46%,500 nM,100%,78%,3%,,
N=C(NCCO)Nc1ccc(C(=O)Oc2ccc3cc(C(=N)N)ccc3c2)cc1 [compound 15],2000 nM,2000 nM,1000 nM,1000 nM,,900 nM,96%,52%,6%,5 µM,
CC(=O)NCCNC(=N)Nc1ccc(C(=O)Oc2ccc3cc(C(=N)N)ccc3c2)cc1 [compound 16],4000 nM,900 nM,3000 nM,,35%,3000 nM,100%,89%,25%,,49%
N=C(NCCOCc1ccccc1)Nc1ccc(C(=O)Oc2ccc3cc(C(=N)N)ccc3c2)cc1 [compound 18],2000 nM,600 nM,2000 nM,5000 nM,37%,2000 nM,100%,100%,46%,,

# Source: patent publication US4777182A, “6-Amidino-2-naphthyl 4-guanidinobenzoate derivatives and pharmaceutical composition containing them” (Torii & Co., Ltd., priority 1984, dated 1988)
